Laboratory results reported in PubChem BioAssay AID489040 (Sanford-Burnham Center for Chemical Genomics, 2010).
Calls of active or inactive are those of the source.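 Rule for the calls: active = mean half-maximal activating concentration from the dose-response fit at or below a set limit; inactive = the rest.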

These compounds were tested against CHO-XBP1 luciferase reporter, IRE1-XBP1 UPR activation (assay: activators of IRE1-XBP1 UPR arm, dose response, counter-screen for apoptotic UPR arm activators, CHO-XBP1 cells, luminescence (AID 489040);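 note: reporter read after six hours of compound exposure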).
For `CS(=O)(=O)Oc1ccc2c(c1)O/C(=C\C=C\c1ccccc1)C2=O`, the EC50 was > 80 µM (inactive).
`Cc1cccc2sc(NC(=O)c3cc(S(=O)(=O)N(C)C)ccc3N3CCCC3)nc12` showed an EC50 of 5.3 µM.
In the case of `C[C@@H](NC(=O)c1coc(=O)c(Br)c1)c1ccccc1`, the EC50 is reported as > 80 µM (inactive).
`CCN(CC)c1ccc(C=C2C(=O)NC(=S)NC2=O)cc1` was tested, and the EC50 was > 80 µM (inactive).
With `COc1ccc(CCn2c(C)cc(C(=O)CCl)c2C)cc1OC` the EC50 was > 80 µM (inactive).
In the case of `Cc1ccc(-c2csc3ncnc(Sc4nnc(CN5CCCCCC5=O)o4)c23)cc1`, the EC50 is reported as > 80 µM (inactive).
In the case of `CCc1cc(C(=O)c2ccc(C)cc2)c(NC(=O)CCl)s1`, the EC50 is reported as > 80 µM (inactive).
With `N#CC(C#N)=C1C=CC=CN1/C(=C\c1ccccc1)C(=O)c1cccs1` the EC50 was > 80 µM (inactive).
For `C/C(=N\NC(=O)C(c1ccccc1)c1ccccc1)c1ccccn1`, the EC50 was > 80 µM (inactive).
With `C=CCNC(=S)N/N=C(\C)c1ccccn1` the EC50 was > 80 µM (inactive).
For `Cc1ccc(C(C[N+](=O)[O-])n2nc(C)cc2C)cc1` (centres undefined), the EC50 was > 80 µM (inactive).
In the case of `CC(C)c1nnc(NC(=O)CCS(=O)(=O)c2nc(-c3cccs3)cc(C(F)(F)F)n2)s1`, the EC50 is reported as > 80 µM (inactive).
For `Cc1ccc2nc(-c3ccc(NC(=S)NC4CC(C)(C)NC(C)(C)C4)cc3)sc2c1`, the EC50 was > 80 µM (inactive).
In the case of `Cc1cccc(-n2c(/C=C/c3ccc([N+](=O)[O-])o3)nc3ccccc3c2=O)c1`, the EC50 is reported as > 80 µM (inactive).
With `COc1cc(CN2CCN(c3cc(C)ccc3C)CC2)ccc1O` the EC50 was > 80 µM (inactive).
`CC(=O)/C(=C/c1ccccc1)C(=O)Nc1ccccc1C` was tested, and the EC50 was > 80 µM (inactive).
With `O=C1Nc2ccccc2/C1=C\C(=O)c1ccccc1` the EC50 was > 80 µM (inactive).
For `C[C@@H]1CN([C@H](C)CO)C(=O)c2cc(NC(=O)Nc3ccc(C(F)(F)F)cc3)ccc2O[C@H]1CN(C)Cc1ccc(Cl)c(Cl)c1`, the EC50 was > 80 µM (inactive).
With `CCOC(=O)Cc1csc(/N=C/c2c(O)n(-c3ccc(C)c(C)c3)c(=O)c3ccccc23)n1` the EC50 was 18.3 µM.
`O=c1[nH]c(-c2ccc(-c3cccc(Cl)c3)o2)nc2ccccc12` was tested, and the EC50 was 15 µM.
`CC(=O)c1cccc(N=Cc2c(O)c3ccccc3oc2=O)c1` gave an EC50 of 15.4 µM.
In the case of `Oc1[nH]c2ccccc2c1N=NC(=S)N1CCOCC1`, the EC50 is reported as “inactive”.
With `FC(F)(F)c1nnc2c(Sc3ccccc3)nc3ccc(Cl)cc3n12` the EC50 was 9.74 µM.
In the case of `O=C1NN(c2cccc(Br)c2)C(=O)/C1=C/c1cccs1`, the EC50 is reported as 8.89 µM.
For `CC(C)(C)c1ccc(/C=C(\c2nc3ccccc3[nH]2)S(=O)(=O)c2ccccc2)cc1`, the EC50 was > 80 µM (inactive).
For `CCCCOC(=O)/C=C\C(=O)NC(N)=O`, the EC50 was > 80 µM (inactive).
With `CC1=C(/C=C/C(C)=C/C=C/C(C)=C/C(=O)Nc2ccc(O)cc2)C(C)(C)CCC1` the EC50 was > 80 µM (inactive).
With `O=C(CCC(=O)Nc1ccc(Cl)cc1Cl)N/N=C/c1ccc([N+](=O)[O-])o1` the EC50 was > 80 µM (inactive).
With `C/C(=N\NC(=O)c1cc2ccccc2cc1O)c1ccccn1` the EC50 was > 80 µM (inactive).
For `CC1=NOC(=O)/C1=C/c1ccc(-c2ccc(Cl)cc2)o1`, the EC50 was > 80 µM (inactive).
In the case of `CC(C)c1ccc(N2C(=O)CC(Sc3nc4ccccc4o3)C2=O)cc1` (centres undefined), the EC50 is reported as > 80 µM (inactive).
In the case of `N#CC12COC3(CCCCC3C1(C#N)C#N)OC2=N` (centres undefined), the EC50 is reported as > 80 µM (inactive).
In the case of `Cc1cc(C(=O)Cn2ncc(Cl)c(Cl)c2=O)c(C)n1CC(F)(F)F`, the EC50 is reported as > 80 µM (inactive).
`COc1cc(C(=O)Oc2c(CN3CCOCC3)cc(Cl)c3cccnc23)cc(OC)c1OC` was tested, and the EC50 was > 80 µM (inactive).
In the case of `Cc1cc(NC(=O)CCS(=O)(=O)c2nc(-c3ccccc3)cc(C(F)(F)F)n2)no1`, the EC50 is reported as > 80 µM (inactive).
With `O=C(Oc1oc(-c2ccco2)nc1C=Nc1ccc(Cl)cc1)c1ccco1` the EC50 was > 80 µM (inactive).
`O=C(/C=C1\NC2(CCCC2)Cc2ccccc21)C(=O)N/N=C/c1ccc(O)c(O)c1` gave an EC50 of 13.6 µM.
For `Cc1cccc(/C=C/C(=O)c2ccc([N+](=O)[O-])o2)c1`, the EC50 was > 80 µM (inactive).
`COc1cc(/C=C/[N+](=O)[O-])ccc1O` was tested, and the EC50 was > 80 µM (inactive).
